Data on 33 compounds can be found in publication PMC9964680, “Novel TDP1 Inhibitors: Disubstituted Thiazolidine-2,4-Diones Containing Monoterpene Moieties” (International Journal of Molecular Sciences, 2023).

In the first assay the target is T1, Human recombinant TDP1 (Homo sapiens, UniProt Q9NUW8).
T1 construct: made in house
T1 sequence (Q9NUW8 whole entry): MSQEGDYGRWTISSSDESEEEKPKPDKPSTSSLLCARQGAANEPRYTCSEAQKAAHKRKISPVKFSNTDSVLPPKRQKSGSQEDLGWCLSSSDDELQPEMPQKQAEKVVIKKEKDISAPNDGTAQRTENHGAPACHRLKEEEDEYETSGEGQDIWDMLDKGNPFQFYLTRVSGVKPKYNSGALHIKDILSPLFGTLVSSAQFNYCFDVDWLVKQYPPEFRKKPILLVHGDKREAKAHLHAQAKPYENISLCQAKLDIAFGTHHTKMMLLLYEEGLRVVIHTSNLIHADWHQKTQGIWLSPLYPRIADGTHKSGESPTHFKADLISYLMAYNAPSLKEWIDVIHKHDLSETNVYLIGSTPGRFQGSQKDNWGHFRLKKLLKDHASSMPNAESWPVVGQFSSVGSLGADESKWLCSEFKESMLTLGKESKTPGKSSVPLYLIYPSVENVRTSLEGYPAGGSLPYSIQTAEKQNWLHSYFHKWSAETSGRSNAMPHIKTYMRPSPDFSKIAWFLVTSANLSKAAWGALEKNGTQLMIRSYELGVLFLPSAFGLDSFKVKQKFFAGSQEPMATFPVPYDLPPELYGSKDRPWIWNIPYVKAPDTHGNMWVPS
Put plainly: Real-time oligonucleotide biosensor assay of TDP1 activity. The class given is biochemical. The note with it: 1.5 nM TDP1, 50 nM biosensor, 26 °C, at least three experiments. The method, then: The inhibiting activity of the compounds against TDP1 was investigated using a real-time oligonucleotide biosensor assay.
The biosensor (5′-[FAM] AAC GTC AGGGTC TTC C [BHQ]-3′) was synthesized in the Laboratory of Nucleic Acid Chemistry at the Institute of Chemical Biology and Fundamental Medicine (Novosibirsk, Russia) and was used for TDP1 enzyme activity real-time fluorescence detection. The reaction mixture (200 µL) contained a TDP1 reaction buffer (50 mM Tris-HCl, pH 8.0, 50 mM NaCl, and 7 mM β-mercaptoethanol), 50 nM oligonucleotide, varied concentrations of the tested compounds, and purified TDP1 in a final concentration of 1.5 nM. The recombinant TDP1 was purified to homogeneity by chromatography on Ni-chelating resin and phosphocellulose P11, as described, using plasmid pET 16B-TDP1, kindly provided by Dr. K.W. Caldecott (University of Sussex, United Kingdom).
The reaction mixtures were incubated at a constant temperature of 26 °C in a POLARstar OPTIMA fluorimeter (BMG LABTECH, GmbH, Ortenberg, Germany). Fluorescence intensity was measured (Ex485/Em520 nm) every 1 min for 10 min. The average values of the half maximal inhibitory concentration (IC50) were determined using a six-point concentration response curve and calculated using MARS Data Analysis 2.0 (BMG LABTECH). The 50% inhibitory concentration (IC50) was defined as the concentration of the compound that inhibited 50% of the enzyme activity, when compared to the untreated controls. At least three independent experiments were carried out to obtain the IC50 values.
In the case of `CC(C)=CCC/C(C)=C/CN1C(=O)S/C(=C\c2ccc(Br)s2)C1=O` [Compound 20b, (Z)-5-((5-bromothiophen-2-yl)methylene)-3-((E)-3,7-dimethylocta-2,6-dienyl)thiazolidine-2,4-dione], the “TDP1 inhibitory activity IC50” value is “did not show affinity for the enzyme”.

Turning to `CC(C)=CCC/C(C)=C/CN1C(=O)S/C(=C\c2cc(Br)cs2)C1=O` [Compound 20d, (Z)-5-((4-bromothiophen-2-yl)methylene)-3-((E)-3,7-dimethylocta-2,6-dienyl)thiazolidine-2,4-dione], the “TDP1 inhibitory activity IC50” value is on record as “submicromolar”.

`CC1(C)[C@H]2CC=C(CCN3C(=O)S/C(=C\c4cc(Br)cs4)C3=O)[C@@H]1C2` [Compound 21d, (Z)-5-((4-bromothiophen-2-yl)methylene)-3-(2-((1R,5S)-6,6-dimethylbicyclo[3.1.1]hept-2-en-2-yl)ethyl)thiazolidine-2,4-dione]: the “TDP1 inhibitory activity IC50” value is reported as “submicromolar”.

Still in this assay, the particulars now being: 1.5 nM TDP1, 50 nM biosensor, 26 °C, at least three experiments; read-out: TDP1 inhibitory activity IC50.
As for `O=C1NC(=O)/C(=C/c2ccco2)S1` [Compound 18a, (Z)-5-(furan-2-ylmethylene)thiazolidine-2,4-dione], the concentration for half-maximal inhibition (IC50) is > 100000 nM.

Regarding `O=C1NC(=O)/C(=C/c2ccc(Br)s2)S1` [Compound 18b, (Z)-5-((5-bromothiophen-2-yl)methylene)thiazolidine-2,4-dione], the IC50 worked out at 1100 ± 200 nM.

For the compound `O=C1NC(=O)/C(=C/c2cccs2)S1` [Compound 18c, (Z)-5-(thiophen-2-ylmethylene)thiazolidine-2,4-dione], the IC50 was > 100000 nM.

In the case of `O=C1NC(=O)/C(=C/c2cc(Br)cs2)S1` [Compound 18d, (Z)-5-((4-bromothiophen-2-yl)methylene)thiazolidine-2,4-dione], the IC50 was > 100000 nM.

As to `Cc1ccc(/C=C2\SC(=O)NC2=O)s1` [Compound 18e, (Z)-5-((5-methylthiophen-2-yl)methylene)thiazolidine-2,4-dione], the IC50 is > 100000 nM.

In the case of `O=C1NC(=O)/C(=C/c2ccc(Br)cc2)S1` [Compound 18f, (Z)-5-(4-bromobenzylidene)thiazolidine-2,4-dione], the concentration for half-maximal inhibition (IC50) was > 100000 nM.

As to `CC1=CC[C@@H](C/C=C2\SC(=O)NC2=O)C1(C)C` [Compound 18g, (S,Z)-5-(2-(2,2,3-Trimethylcyclopent-3-enyl)ethylene)thiazolidine-2,4-dione], the IC50 is > 100000 nM.

Consider `O=C1S/C(=C\c2ccco2)C(=O)N1Cc1ccccc1` [Compound 19a, (Z)-3-Benzyl-5-(furan-2-ylmethylene)thiazolidine-2,4-dione], for which the IC50 was > 100000 nM.

For the compound `O=C1S/C(=C\c2ccc(Br)s2)C(=O)N1Cc1ccccc1` [Compound 19b, (Z)-3-Benzyl-5-((5-bromothiophen-2-yl)methylene)thiazolidine-2,4-dione], the concentration for half-maximal inhibition (IC50) came to 1900 ± 300 nM.

With `O=C1S/C(=C\c2cccs2)C(=O)N1Cc1ccccc1` [Compound 19c, (Z)-3-Benzyl-5-(thiophen-2-ylmethylene)thiazolidine-2,4-dione], the 50% inhibitory concentration (IC50) is > 100000 nM.

Consider `O=C1S/C(=C\c2cc(Br)cs2)C(=O)N1Cc1ccccc1` [Compound 19d, (Z)-3-Benzyl-5-((4-bromothiophen-2-yl)methylene)thiazolidine-2,4-dione], for which the IC50 was > 100000 nM.

For `Cc1ccc(/C=C2\SC(=O)N(Cc3ccccc3)C2=O)s1` [Compound 19e, (Z)-3-Benzyl-5-((5-methylthiophen-2-yl)methylene)thiazolidine-2,4-dione], the IC50 is > 100000 nM.

Turning to `O=C1S/C(=C\c2ccc(Br)cc2)C(=O)N1Cc1ccccc1` [Compound 19f, (Z)3-benzyl-5-(4-bromobenzylidene)thiazolidine-2,4-dione], the IC50 was found to be 1600 ± 300 nM.

`CC1=CC[C@@H](C/C=C2\SC(=O)N(Cc3ccccc3)C2=O)C1(C)C` [Compound 19g, (S,Z)-3-Benzyl-5-(2-(2,2,3-trimethylcyclopent-3-enyl)ethylidene)thiazolidine-2,4-dione]: the IC50 was 2400 ± 1100 nM.

`CC(C)=CCC/C(C)=C/CN1C(=O)S/C(=C\c2ccco2)C1=O` [Compound 20a, (Z)-3-((E)-3,7-dimethylocta-2,6-dienyl)-5-(furan-2-ylmethylene)thiazolidine-2,4-dione]: the half-maximal inhibitory concentration (IC50) came to 3400 ± 100 nM.

Consider `CC(C)=CCC/C(C)=C/CN1C(=O)S/C(=C\c2ccc(Br)s2)C1=O` [Compound 20b, (Z)-5-((5-bromothiophen-2-yl)methylene)-3-((E)-3,7-dimethylocta-2,6-dienyl)thiazolidine-2,4-dione], for which the IC50 is > 100000 nM.

For the compound `CC(C)=CCC/C(C)=C/CN1C(=O)S/C(=C\c2cccs2)C1=O` [Compound 20c, (Z)-3-((E)-3,7-dimethylocta-2,6-dienyl)-5-(thiophen-2-ylmethylene)thiazolidine-2,4-dione], the concentration for half-maximal inhibition (IC50) is > 100000 nM.

Take `CC(C)=CCC/C(C)=C/CN1C(=O)S/C(=C\c2cc(Br)cs2)C1=O` [Compound 20d, (Z)-5-((4-bromothiophen-2-yl)methylene)-3-((E)-3,7-dimethylocta-2,6-dienyl)thiazolidine-2,4-dione]: the IC50 stood at 650 ± 70 nM.

In the case of `CC(C)=CCC/C(C)=C/CN1C(=O)S/C(=C\c2ccc(C)s2)C1=O` [Compound 20e, (Z)-3-((E)-3,7-dimethylocta-2,6-dienyl)-5-((5-methylthiophen-2-yl)methylene)-thiazolidine-2,4-dione], the half-inhibitory concentration (IC50) was 2900 ± 100 nM.

Regarding `CC(C)=CCC/C(C)=C/CN1C(=O)S/C(=C\c2ccc(Br)cc2)C1=O` [Compound 20f, (Z)-5-(4-bromobenzylidene)-3-((E)-3,7-dimethylocta-2,6-dienyl)thiazolidine-2,4-dione], the IC50 is > 100000 nM.

Take `CC(C)=CCC/C(C)=C/CN1C(=O)S/C(=C\C[C@@H]2CC=C(C)C2(C)C)C1=O` [Compound 20g]: the half-inhibitory concentration (IC50) came to 4100 ± 100 nM.

In the case of `CC1(C)[C@H]2CC=C(CCN3C(=O)S/C(=C\c4cccs4)C3=O)[C@@H]1C2` [Compound 21c, (Z)-3-(2-((1R,5S)-6,6-dimethylbicyclo[3.1.1]hept-2-en-2-yl)ethyl)-5-(thiophen-2-ylmethylene)thiazolidine-2,4-dione], the IC50 is > 100000 nM.

In the case of `CC1(C)[C@H]2CC=C(CCN3C(=O)S/C(=C\c4cc(Br)cs4)C3=O)[C@@H]1C2` [Compound 21d, (Z)-5-((4-bromothiophen-2-yl)methylene)-3-(2-((1R,5S)-6,6-dimethylbicyclo[3.1.1]hept-2-en-2-yl)ethyl)thiazolidine-2,4-dione], the half-maximal inhibitory concentration (IC50) worked out at 550 ± 70 nM.

`Cc1ccc(/C=C2\SC(=O)N(CCC3=CC[C@H]4C[C@@H]3C4(C)C)C2=O)s1` [Compound 21e, (Z)-3-(2-((1R,5S)-6,6-dimethylbicyclo[3.1.1]hept-2-en-2-yl)ethyl)-5-((5-methylthiophen-2-yl)methylene)thiazolidine-2,4-dione]: the IC50 is 2300 ± 100 nM.

On to `CC1(C)[C@H]2CC=C(CCN3C(=O)S/C(=C\c4ccc(Br)cc4)C3=O)[C@@H]1C2` [Compound 21f, (Z)-5-(4-bromobenzylidene)-3-(2-((1R,5S)-6,6-dimethylbicyclo[3.1.1]hept-2-en-2-yl)ethyl)thiazolidine-2,4-dione], for which the half-maximal inhibitory concentration (IC50) was > 100000 nM.

Consider `CC1=CCC(CC=C2SC(=O)N(CCC3=CCC4CC3C4(C)C)C2=O)C1(C)C` [Compound 21g, (Z)-3-(2-(1R,5S)-6,6-dimethylbicyclo[3.1.1]hept-2-en-2-yl)ethyl)-5-(2-((S)-2,2,3-trimethylcyclopent-3-enyl)ethylidene)thiazolidine-2,4-dione], for which the IC50 was determined as 2400 ± 100 nM.

A further assay concerns TDP1.
Test: not given
The note with it: Figure 1, berberines; cited from earlier work.
Take `CCCS(=O)(=O)Oc1c(OC)cc(Br)c2c1CN1CCc3cc4c(cc3C1C2)OCO4` (stereo not drawn) [Compound 2]: the IC50 is 2900 nM.

The assay is the same for the next values; noted with them: Figure 1, coumarins; cited from earlier work.
Regarding `COc1ccc(-c2cc(=O)oc3cc(OCCC4=CCC5CC4C5(C)C)ccc23)cc1` (stereo not drawn) [Compound 3], the half-maximal inhibitory concentration (IC50) is 910 nM.

Staying with this assay, now noted: Figure 1, isoquinolines; cited from earlier work.
`COc1cccc2c1-c1c(c3ccc([N+](=O)[O-])cc3c(=O)n1CCCN)C2=O` [Compound 5]: the IC50 is 5500 nM.

The same assay, now with this note: Figure 1, resin acid derivatives; cited from earlier work.
Regarding `CC(C)c1ccc2c(c1)CC[C@H]1[C@](C)(CNC(=O)CC34CC5CC(CC(C5)C3)C4)CCC[C@]21C` [Compound 7], the concentration for half-maximal inhibition (IC50) is 190 nM.

The assay is the same for the next values; noted with them: Figure 1, steroids; cited from earlier work.
As to `CO[C@@H]1CC[C@]2(C)C3C[C@H](OC)[C@@]4(C)C(CC[C@@H]4[C@H](C)CCC(=O)Nc4ccc(Br)cc4)[C@@H]3CC[C@@H]2C1` (stereo partly drawn) [Compound 4], the IC50 is 270 nM.

Staying with this assay, now noted: Figure 1, terpenoadamantanes; cited from earlier work.
For the compound `CC(C)=CCC/C(C)=C/CSc1n[nH]c(C23CC4CC(CC(C4)C2)C3)n1` [Compound 8], the half-maximal inhibitory concentration (IC50) was 5200 nM.

The same assay, now with this note: Figure 1, thiazolidines; cited from earlier work.
With `O=C1NC(=S)/C(=C/c2ccc(O)c(O)c2O)S1` [Compound 6], the concentration for half-maximal inhibition (IC50) is 870 nM.

In general, IC50 refers to the concentration needed to halve the response being measured.
